Like-named read-outs stand apart in the source and are kept apart here.
Columns and labels:
[1] = tested on: MOLP-8 human multiple myeloma cell line; assay: Caspase-Glo 3/7 apoptosis induction assay in MOLP-8 cells; type: cell-based; conditions: averaged over all runs on all batches
From the text: MCL-1 is a regulator of apoptosis and is highly over-expressed in tumor cells that escape cell death. The assay evaluates the cellular potency of small-molecule compounds targeting regulators of the apoptosis pathway, primarily MCL-1, Bfl-1, Bcl-2, and other proteins of the Bcl-2 family. Protein-protein inhibitors disrupting the interaction of anti-apoptotic regulators with BH3-domain proteins initiate apoptosis.
The Caspase-Glo® 3/7 Assay is a luminescent assay that measures caspase-3 and −7 activities in purified enzyme preparations or cultures of adherent or suspension cells. The assay provides a proluminescent caspase-3/7 substrate, which contains the tetrapeptide sequence DEVD. This substrate is cleaved to release aminoluciferin, a substrate of luciferase used in the production of light. Addition of the single Caspase-Glo® 3/7 Reagent in an “add-mix-measure” format results in cell lysis, followed by caspase cleavage of the substrate and generation of a “glow-type” luminescent signal.
This assay uses the MOLP-8 human multiple myeloma cell line, which is sensitive to MCL-1 inhibition.
Cell cultures were maintained between 0.2 and 2.0×10^6 cells/mL. The cells were harvested by collection in 50 mL conical tubes. The cells were then pelleted at 500 g for 5 mins before removing supernatant and resuspension in fresh pre-warmed culture medium. The cells were counted and diluted as needed.
The assay reagent was prepared by transferring the buffer solution to the substrate vial and mixing. The solution may be stored for up to 1 week at 4° C. with negligible loss of signal.
Compounds were delivered in assay-ready plates (Proxiplate) and stored at −20° C.
Assays always include 1 reference compound plate containing reference compounds. The plates were spotted with 40 nL of compounds (0.5% DMSO final in cells; serial dilution; […] highest conc. 1/3 dilution, 10 doses, duplicates). The compounds were used at room temperature and 4 μL of pre-warmed media was added to all wells except column 2 and 23. The negative control was prepared by adding 1% DMSO in media. The positive control was prepared by adding the appropriate positive control compound in final concentration of […] in media. The plate was prepared by adding 4 μL negative control to column 23, 4 μL positive control to column 2 and 4 μL cell suspension to all wells in the plate. The plate with cells was then incubated at 37° C. for 2 hours. The assay signal reagent is the Caspase-Glo solution described above, and 8 μL was added to all wells. The plates were then sealed and measured after 30 minutes.
The activity of a test compound was calculated as percent change in apoptosis induction as follows: […]

[2] = target: T1, Myeloid Cell Leukemia 1 (Mcl-1) (Homo sapiens, UniProt Q07820); assay: biochemical; type: binding
T1 construct: Terbium (Tb) label; means of attachment not described
T1 sequence (Q07820 whole entry): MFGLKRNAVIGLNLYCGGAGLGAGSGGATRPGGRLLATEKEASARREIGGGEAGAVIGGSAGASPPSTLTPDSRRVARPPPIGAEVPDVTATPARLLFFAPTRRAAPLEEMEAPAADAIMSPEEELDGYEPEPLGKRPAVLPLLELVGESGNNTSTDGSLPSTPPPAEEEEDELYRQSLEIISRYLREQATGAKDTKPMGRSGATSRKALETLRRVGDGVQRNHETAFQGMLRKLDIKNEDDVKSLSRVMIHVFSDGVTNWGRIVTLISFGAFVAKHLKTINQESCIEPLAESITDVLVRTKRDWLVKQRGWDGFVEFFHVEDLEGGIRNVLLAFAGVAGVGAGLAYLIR

[3] = read-out: MOLP8 Caspase-Glo AC50 (nM) LD value, MOLP-8 cells, 2 hours at 37° C., caspase-3/7 luminescence
[4] = Homo sapiens, MOLP-8, 2 h, read-out: MOLP8 Caspase-Glo AC50 (nM) LD value, MOLP-8 cells, 2 hours at 37° C., caspase-3/7 luminescence

## COCCOCCn1nc2c(c1C)-c1c(Cl)ccc3c1c(C)c(C(=O)O)n3CCCOc1cc(cc3c(F)c(F)ccc13)CCc1cc(nn1C)CSC2 (single isomer, unassigned) [Compound 63]
[1]; [3]
  AC50: 22 nM
[2]; TB-MCL1 Ki (nM)
  Ki: 0.026 nM

## COCCOCCn1nc(C)c2c1CSCc1cc(n(C)n1)CCc1cc(c3ccc(F)c(F)c3c1)OCCCn1c(C(=O)O)c(C)c3c-2c(Cl)ccc31 (single isomer, unassigned) [Compound 64]
[1]; [4]
  AC50: 2100 nM
[2]; TB-MCL1 Ki (nM)
  Ki: 2.33 nM

## Cc1nn(CCO)c2c1-c1c(Cl)ccc3c1c(C)c(C(=O)O)n3CCCOc1cc(cc3cc(F)ccc13)CCc1cc(nn1C)CSC2 [Compound 53]
[1]; [3]
  AC50: 1250 nM

## Cc1c(C(=O)O)n2c3ccc(Cl)c(c13)-c1c(nn(C)c1C)CN(C)Cc1cc(n(C)n1)CCc1cc(c3ccc(F)cc3c1)OCCC2 [Compound 9]
[1]; [3]
  AC50: 1170 nM

## COCCOCCn1nc2c(c1C)-c1c(Cl)ccc3c1c(C)c(C(=O)O)n3CCCOc1cc(cc3c(F)c(F)ccc13)CCc1cc(nn1C)CSC2 (single isomer, unassigned) [Compound 65]
[1]; [3]
  AC50: 1600 nM
[2]; TB-MCL1 Ki (nM)
  Ki: 2.98 nM

## COCCOCCOCCn1nc(C)c2c1CSCc1cc(n(C)n1)CCc1cc(c3ccc(F)cc3c1)OCCCn1c(C(=O)O)c(C)c3c-2c(Cl)ccc31 [Compound 16]
[1]; [4]
  AC50: 19.7 nM
[2]; TB-MCL1 Ki (nM)
  Ki: 0.024 nM

## COCCOCCn1nc(C)c2c1CS(=O)(=O)Cc1cc(n(C)n1)CCc1cc(c3ccc(F)cc3c1)OCCCn1c(C(=O)O)c(C)c3c-2c(Cl)ccc31 (single isomer, unassigned) [Compound 67]
[1]; [4]
  AC50: 104 nM
[2]; TB-MCL1 Ki (nM)
  Ki: 0.017 nM

## Cc1nn(CCC2CCOCC2)c2c1-c1c(Cl)ccc3c1c(C)c(C(=O)O)n3CCCOc1cc(cc3cc(F)ccc13)CCc1cc(nn1C)CSC2 [Compound 22]
[1]; [4]
  AC50: 20.1 nM
[2]; TB-MCL1 Ki (nM)
  Ki: 0.029 nM

## COCCOCCn1nc(C)c2c1C[S+]([O-])Cc1cc(n(C)n1)CCc1cc(c3ccc(F)cc3c1)OCCCn1c(C(=O)O)c(C)c3c-2c(Cl)ccc31 (single isomer, unassigned) [Compound 49]
[1]; [4]
  AC50: 141 nM
[2]; TB-MCL1 Ki (nM)
  Ki: 0.01 nM

## COCCn1nc(C)c2c1CSCc1cc(n(C)n1)CCc1cc(c3ccc(Cl)cc3c1)OCCCn1c(C(=O)O)c(C)c3c-2c(Cl)ccc31 [Compound 41]
[1]; [3]
  AC50: 568 nM

## Cc1nn(CCOCCO)c2c1-c1c(Cl)ccc3c1c(C)c(C(=O)O)n3CCCOc1cc(cc3cc(F)ccc13)CCc1cc(nn1C)CSC2 [Compound 51]
[1]; [4]
  AC50: 87.3 nM
[2]; TB-MCL1 Ki (nM)
  Ki: 0.013 nM

## COCCn1nc2c(c1C)-c1c(Cl)ccc3c1c(C)c(C(=O)O)n3CCCOc1cc(cc3cc(F)ccc13)CCc1cc(nn1C)CSC2 [Compound 19]
[1]; [4]
  AC50: 20.7 nM
[2]; TB-MCL1 Ki (nM)
  Ki: 0.035 nM

## COCCOCCn1nc(C)c2c1CSCc1cc(n(C)n1)CCc1cc(c3ccc(F)cc3c1)OCCCn1c(C(=O)O)c(C)c3c-2c(Cl)ccc31 [Compound 31]
[2]; read-out: TB-MCL1 Ki
  Ki: 0.015 nM

## Cc1c(C(=O)O)n2c3ccc(Cl)c(c13)-c1c(nn(C)c1C)CS(=O)(=O)Cc1cc(n(C)n1)CCc1cc(c3ccccc3c1)OCCC2 [Compound 7]
[1]; [3]
  AC50: 11900 nM
[2]; TB-MCL1 Ki (nM)
  Ki: 1.71 nM

## COCCOCCn1nc(C)c2c1C[S+]([O-])Cc1cc(n(C)n1)CCc1cc(c3ccc(F)cc3c1)OCCCn1c(C(=O)O)c(C)c3c-2c(Cl)ccc31 (single isomer, unassigned) [Compound 50]
[1]; [3]
  AC50: 83.6 nM
[2]; TB-MCL1 Ki (nM)
  Ki: 0.013 nM

## COCCn1nc(C)c2c1CSCc1cc(n(C)n1)CCc1cc(c3ccc(Cl)cc3c1)OCCCn1c(C(=O)O)c(C)c3c-2c(Cl)ccc31 [Compound 47]
[1]; [3]
  AC50: 2710 nM

## Cc1c(C(=O)O)n2c3ccc(Cl)c(c13)-c1c(nn(C)c1C)CN(C)Cc1cc(n(C)n1)CCc1cc(c3ccc(F)cc3c1)OCCC2 [Compound 8]
[1]; [3]
  AC50: 68.8 nM

## CNCCn1nc2c(c1C)-c1c(Cl)ccc3c1c(C)c(C(=O)O)n3CCCOc1cc(cc3cc(F)ccc13)CCc1cc(nn1C)CSC2 (single isomer, unassigned) [Compound 68]
[1]; [4]
  AC50: 440 nM
[2]; TB-MCL1 Ki (nM)
  Ki: 0.008 nM

## Cc1c(C(=O)O)n2c3ccc(Cl)c(c13)-c1c(nn(CCC3CCOCC3)c1C)CSCc1cc(n(C)n1)CCc1cc(c3ccc(F)cc3c1)OCCC2 [Compound 23]
[1]; [4]
  AC50: 30.6 nM
[2]; TB-MCL1 Ki (nM)
  Ki: 0.016 nM

## COCC(COC)n1nc(C)c2c1CSCc1cc(n(C)n1)CCc1cc(c3ccc(F)cc3c1)OCCCn1c(C(=O)O)c(C)c3c-2c(Cl)ccc31 [Compound 20]
[1]; [4]
  AC50: 8.8 nM
[2]; TB-MCL1 Ki (nM)
  Ki: 0.026 nM

## CNCCn1nc(C)c2c1CSCc1cc(n(C)n1)CCc1cc(c3ccc(F)cc3c1)OCCCn1c(C(=O)O)c(C)c3c-2c(Cl)ccc31 (single isomer, unassigned) [Compound 69]
[1]; [4]
  AC50: 402 nM
[2]; TB-MCL1 Ki (nM)
  Ki: 0.014 nM

## COCC(COC)n1nc2c(c1C)-c1c(Cl)ccc3c1c(C)c(C(=O)O)n3CCCOc1cc(cc3cc(F)ccc13)CCc1cc(nn1C)CSC2 [Compound 21]
[1]; [4]
  AC50: 49.5 nM
[2]; TB-MCL1 Ki (nM)
  Ki: 0.066 nM

## Cc1nn(CCCN)c2c1-c1c(Cl)ccc3c1c(C)c(C(=O)O)n3CCCOc1cc(cc3cc(F)ccc13)CCc1cc(nn1C)CSC2 [Compound 38]
[1]; [4]
  AC50: 540 nM
[2]; TB-MCL1 Ki (nM)
  Ki: 0.019 nM

## Cc1c(C(=O)O)n2c3ccc(Cl)c(c13)-c1c(nn(C)c1C)CSCc1cc(n(C)n1)CCc1cc(c3ccccc3c1)OCCC2 [Compound 2]
[1]; [4]
  AC50: 1260 nM
[2]; TB-MCL1 Ki (nM)
  Ki: 0.483 nM

## COCCOCCn1nc(C)c2c1CSCc1cc(n(C)n1)CCc1cc(c3ccc(F)c(F)c3c1)OCCCn1c(C(=O)O)c(C)c3c-2c(Cl)ccc31 [Compound 62]
[1]; [4]
  AC50: 11.3 nM
[2]; TB-MCL1 Ki (nM)
  Ki: 0.027 nM

## Cc1c(C(=O)O)n2c3ccc(Cl)c(c13)-c1c(nn(C)c1C)CS(=O)(=O)Cc1cc(n(C)n1)CCc1cc(c3ccccc3c1)OCCC2 [Compound 6]
[1]; [3]
  AC50: 931 nM
[2]; TB-MCL1 Ki (nM)
  Ki: 0.059 nM

## Cc1nn(C)c2c1-c1c(Cl)ccc3c1c(C)c(C(=O)O)n3CCCOc1cc(cc3cc(F)ccc13)CCc1cc(nn1C)CSC2 [Compound 28]
[1]; [4]
  AC50: 16.7 nM
[2]; TB-MCL1 Ki (nM)
  Ki: 0.028 nM

## COCCOCCOCCn1nc2c(c1C)-c1c(Cl)ccc3c1c(C)c(C(=O)O)n3CCCOc1cc(cc3cc(F)ccc13)CCc1cc(nn1C)CSC2 [Compound 17]
[1]; [4]
  AC50: 46.8 nM
[2]; TB-MCL1 Ki (nM)
  Ki: 0.018 nM

## COCCn1nc(C)c2c1CSCc1cc(n(C)n1)CCc1cc(c3ccc(F)cc3c1)OCCCn1c(C(=O)O)c(C)c3c-2c(Cl)ccc31 [Compound 18]
[1]; [4]
  AC50: 17 nM
[2]; TB-MCL1 Ki (nM)
  Ki: 0.025 nM

## Cc1c(C(=O)O)n2c3ccc(Cl)c(c13)-c1c(nn(C)c1C)CSCc1cc(n(C)n1)CCc1cc(c3c(F)cccc3c1)OCCC2 [Compound 5]
[1]; [4]
  AC50: 1290 nM
[2]; TB-MCL1 Ki (nM)
  Ki: 0.411 nM

## Cc1nn(CCO)c2c1-c1c(Cl)ccc3c1c(C)c(C(=O)O)n3CCCOc1cc(cc3cc(F)ccc13)CCc1cc(nn1C)CSC2 [Compound 52]
[1]; [3]
  AC50: 39.4 nM

— US20230130109A1, “MACROCYCLIC INDOLE DERIVATIVES AS INHIBITORS OF MCL-1” (priority 2020, published 2023)
